Reference: ChEMBL document CHEMBL1150271, “Corymbones A and B, phloroglucinols with thyrotropin releasing hormone receptor 2 binding affinity from the flowers of Corymbia peltata” (J Nat Prod, 2008)
The source made the active and inactive calls. The calls are words filed in the database; no cut-off is given here.

Assays:
[1] = biological target: T1, Thyrotropin-releasing hormone receptor 2 (Rattus norvegicus) (UniProt A6IZR3); experiment: Displacement of [3H]3-methylhistidyl-TRH from rat recombinant TRH2 receptor expressed in […] cells up to 1 mM; type: cell-based
T1 sequence (whole entry): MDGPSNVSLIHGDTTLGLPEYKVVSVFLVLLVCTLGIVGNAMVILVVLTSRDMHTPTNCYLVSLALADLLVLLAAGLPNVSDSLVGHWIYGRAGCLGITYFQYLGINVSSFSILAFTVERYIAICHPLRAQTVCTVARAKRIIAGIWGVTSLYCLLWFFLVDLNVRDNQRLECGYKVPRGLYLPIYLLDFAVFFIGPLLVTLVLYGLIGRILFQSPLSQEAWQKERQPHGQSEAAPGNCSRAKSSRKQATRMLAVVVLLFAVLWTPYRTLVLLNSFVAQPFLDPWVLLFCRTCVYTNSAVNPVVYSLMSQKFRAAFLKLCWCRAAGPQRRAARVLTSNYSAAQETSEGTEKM

[2] = biological target: T2, Thyrotropin-releasing hormone receptor 2 (Rattus norvegicus, UniProt A6IZR3); experiment: Displacement of [3H]3-methylhistidyl-TRH from rat recombinant TRH2 receptor expressed in […] cells; type: cell-based
T2 sequence (A6IZR3 whole entry): T1 sequence (whole entry)

Activity [1]	IC50 [2] [µM]	Compound
inactive	–	Cc1c(O)cc(O)c(C(=O)CCc2ccccc2)c1O
–	23	Cc1c(O)c(C(=O)CCc2ccccc2)c(O)c(C(CCc2ccccc2)C2=C(O)C(C)(C)C(=O)C(C)(C)C2=O)c1O (centres undefined) [CORYMBONE A]
–	19	Cc1c(O)c(C(=O)CCc2ccccc2)c(O)c(C(CC(C)C)C2=C(O)C(C)(C)C(=O)C(C)(C)C2=O)c1O (centres undefined) [CORYMBONE B]
–	23	NC(=O)[C@@H]1CCCN1C(=O)[C@H](Cc1cnc[nH]1)NC(=O)[C@@H]1CCC(=O)N1 [PROTIRELIN]
